Entries after “also recorded” stand apart in the source; their conditions may differ.
Assays:
[1] = biological target: T1, TRPM8 (Mus musculus, UniProt Q8R4D5); test: Calcium imaging of TRP transfected cell lines treated with acetaldehyde (TRPM8); type: cell-based; settings: 1 mM acetaldehyde
T1 construct: expressed in transfected cells; host or cells: HEK293T (ATCC CRL-11268), pcDNA5/FRT
From the text: (§1) HEK293T cell line (ATCC CRL-11268) was transiently transfected with plasmid DNA containing polynucleotide encoding hTRPA1 (SEQ. ID. NO: 1), rTRPV2 (SEQ. ID. NO: 2), rTRPV1 (SEQ. ID. NO: 3), mTRPV4 (SEQ. ID. NO: 4), mTRPA1 (SEQ. ID. NO: 5), hTRPV3 (SEQ. ID. NO: 6) or mTRPM8 (SEQ. ID. NO: 7).
(§2) Particularly, the HEK293T cell line was transiently transfected with individual TRP channel plasmid (pcDNA3.1 containing polynucleotide encoding hTRPA1, rTRPV2, rTRPV1 or mTRPV4; pcDNA5/FRT containing polynucleotide encoding mTRPA1, hTRPV3 or mTRPM8) 3 μg per 35-mm dish and 600 ng/well of pcDNA3 (Invitrogen Corp., USA; containing green fluorescent protein (GFP) cDNA) using Fugene6 (Roche Diagnostics, USA) according to manufacturer's instruction. The transformed cells were cultured in DMEM/F12 containing 10% FBS and 1% penicillin/streptomycin in a CO2 incubator for 24 hours. The cells were replated onto poly-L-lysine-coated glass coverslips, followed by further culture for 10-24 hours.
(§3) Particularly, the transfected cell line of Example <4-1> was loaded with Fluo-3AM (5 μM; Sigma Aldrich, USA) in the bath solution (140 mM NaCl, 5 mM KCl, 2 mM CaCl2, 1 mM MgCl2, 10 mM HEPES; adjusted to pH 7.4 with NaOH) containing 0.02% pluronic acid (Invitrogen, USA). […]

[2] = test system: trigeminal neurons; test: Whole-cell voltage-clamp recording of cultured trigeminal neurons; type: cell-based, mouse; settings: 1 mM acetaldehyde, n=6
Protocol: Trigeminal ganglia were dissected out of decapitated adult ICR mice in cold PBS and treated with 1.5 mg/Ml of collagenase/dispase (Roche Diagnostics, USA) at 37 °C for 45 min, and then treated with 0.25% trypsin (Invitrogen, USA) for 15 min. The trigeminal neurons prepared thereby were then plated onto poly-L-lysine-coated coverslips in DMEM/F12 containing 10% FBS, 1% penicillin/streptomycin and 5 ng/Ml of 2.5S NGF (Invitrogen, USA), nerve growth factor (Invitrogen), followed by culture in a CO2 incubator for 48-72 hours.
Particularly, the extracellular solution (140 mM NaCl, 5 mM KCl, 2 mM CaCl2, 1 mM MgCl2, 10 mM HEPES; titrated to pH 7.4 with NaOH) and the pipette solution (140 mM CsCl, 5 mM EGTA, 10 mM HEPES, 2.0 mM MgATP, 0.2 mM NaGTP; titrated to pH 7.2 with CsOH) were used. The potential was holded at −60 mV for 250 ms, voltage-ramp pulsed from −80 mV to +80 mV for […] and returned to −60 mV for 250 ms, which was repeated without intersweep. This experiment was repeated 5 times.
The trigeminal neurons prepared by the same manner as described in Example 2 were delayed-treated with 1 mM acetaldehyde, followed by treatment of 20 μM GdCl3 (a TRPA1 blocker gadolinium; Sigma-Aldrich, USA) and 2 mM camphor. Then, whole-cell voltage-clamp recording was performed by the same manner as described in Example <5-2>.

[3] = biological target: T2, TRPV1 (Rattus norvegicus, UniProt O35433); test: Calcium imaging of TRP transfected cell lines treated with acetaldehyde (TRPV1); type: cell-based; settings: 1 mM acetaldehyde
T2 construct: expressed in transfected cells; host or cells: HEK293T (ATCC CRL-11268), pcDNA3.1
From the text: as §1, §2, §3

[4] = test system: ICR mice; test: Acute hindpaw licking/flicking behavioral analysis; settings: 10 min
Protocol: This analysis was performed in accordance with protocols approved by the University Committee on Laboratory Animals. Mice were acclimated for 1 h to the test environment prior to experiments. Drugs dissolved in vehicle (PBS containing 0.5% Tween 80) were injected into mice right hindpaws intradermally.

[5] = biological target: T3, TRPV4 (Mus musculus, UniProt Q9EPK8); test: Calcium imaging of TRP transfected cell lines treated with acetaldehyde (TRPV4); type: cell-based; settings: 1 mM acetaldehyde
T3 construct: expressed in transfected cells; host or cells: HEK293T (ATCC CRL-11268), pcDNA3.1
From the text: as §1, §2, §3

[6] = biological target: T4, TRPV3 (Homo sapiens, UniProt Q8NET8); test: Calcium imaging of TRP transfected cell lines treated with acetaldehyde (TRPV3); type: cell-based; settings: 1 mM acetaldehyde
T4 construct: expressed in transfected cells; host or cells: HEK293T (ATCC CRL-11268), pcDNA5/FRT
T4 sequence (Q8NET8 1-790): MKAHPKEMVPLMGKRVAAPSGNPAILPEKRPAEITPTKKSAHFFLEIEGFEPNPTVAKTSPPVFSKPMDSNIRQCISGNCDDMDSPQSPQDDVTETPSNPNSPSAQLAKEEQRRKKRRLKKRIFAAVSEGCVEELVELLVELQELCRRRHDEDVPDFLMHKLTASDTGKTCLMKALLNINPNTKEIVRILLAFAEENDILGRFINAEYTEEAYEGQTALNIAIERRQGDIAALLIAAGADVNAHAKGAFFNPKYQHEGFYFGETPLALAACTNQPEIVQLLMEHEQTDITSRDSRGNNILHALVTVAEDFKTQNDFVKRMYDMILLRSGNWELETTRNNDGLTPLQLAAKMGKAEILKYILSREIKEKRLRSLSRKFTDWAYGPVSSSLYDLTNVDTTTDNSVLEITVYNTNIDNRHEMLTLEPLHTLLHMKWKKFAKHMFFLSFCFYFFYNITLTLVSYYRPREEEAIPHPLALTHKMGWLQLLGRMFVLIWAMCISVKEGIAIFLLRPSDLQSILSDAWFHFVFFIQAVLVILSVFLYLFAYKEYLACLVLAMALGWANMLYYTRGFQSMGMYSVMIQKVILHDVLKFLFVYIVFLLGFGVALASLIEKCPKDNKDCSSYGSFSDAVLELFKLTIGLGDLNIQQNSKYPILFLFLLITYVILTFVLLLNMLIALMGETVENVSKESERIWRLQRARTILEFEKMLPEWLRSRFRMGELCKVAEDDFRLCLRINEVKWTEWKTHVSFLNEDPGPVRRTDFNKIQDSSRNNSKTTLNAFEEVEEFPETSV
From the text: as §1, §2, §3

[7] = biological target: T5, hTRPA1 (Homo sapiens, UniProt O75762); test: Fluo-3 calcium imaging of hTRPA1-transfected HEK293T cells; type: cell-based
T5 construct: expressed in transfected cells; host or cells: HEK293T (ATCC CRL-11268), pcDNA3.1
Protocol: as §2
(§4) Stock solutions were made using water or ethanol, and were diluted with test solutions before use.
Calcium imaging was performed with a confocal microscope (LSM5 Pascal, Carl Zeiss, Germany), and time-lapse images (488 nm excitation/514 nm emission) were collected every 3 seconds using Carl Zeiss ratio tool software (Carl Zeiss, Germany).
as §4

T5 sequence (O75762 whole entry): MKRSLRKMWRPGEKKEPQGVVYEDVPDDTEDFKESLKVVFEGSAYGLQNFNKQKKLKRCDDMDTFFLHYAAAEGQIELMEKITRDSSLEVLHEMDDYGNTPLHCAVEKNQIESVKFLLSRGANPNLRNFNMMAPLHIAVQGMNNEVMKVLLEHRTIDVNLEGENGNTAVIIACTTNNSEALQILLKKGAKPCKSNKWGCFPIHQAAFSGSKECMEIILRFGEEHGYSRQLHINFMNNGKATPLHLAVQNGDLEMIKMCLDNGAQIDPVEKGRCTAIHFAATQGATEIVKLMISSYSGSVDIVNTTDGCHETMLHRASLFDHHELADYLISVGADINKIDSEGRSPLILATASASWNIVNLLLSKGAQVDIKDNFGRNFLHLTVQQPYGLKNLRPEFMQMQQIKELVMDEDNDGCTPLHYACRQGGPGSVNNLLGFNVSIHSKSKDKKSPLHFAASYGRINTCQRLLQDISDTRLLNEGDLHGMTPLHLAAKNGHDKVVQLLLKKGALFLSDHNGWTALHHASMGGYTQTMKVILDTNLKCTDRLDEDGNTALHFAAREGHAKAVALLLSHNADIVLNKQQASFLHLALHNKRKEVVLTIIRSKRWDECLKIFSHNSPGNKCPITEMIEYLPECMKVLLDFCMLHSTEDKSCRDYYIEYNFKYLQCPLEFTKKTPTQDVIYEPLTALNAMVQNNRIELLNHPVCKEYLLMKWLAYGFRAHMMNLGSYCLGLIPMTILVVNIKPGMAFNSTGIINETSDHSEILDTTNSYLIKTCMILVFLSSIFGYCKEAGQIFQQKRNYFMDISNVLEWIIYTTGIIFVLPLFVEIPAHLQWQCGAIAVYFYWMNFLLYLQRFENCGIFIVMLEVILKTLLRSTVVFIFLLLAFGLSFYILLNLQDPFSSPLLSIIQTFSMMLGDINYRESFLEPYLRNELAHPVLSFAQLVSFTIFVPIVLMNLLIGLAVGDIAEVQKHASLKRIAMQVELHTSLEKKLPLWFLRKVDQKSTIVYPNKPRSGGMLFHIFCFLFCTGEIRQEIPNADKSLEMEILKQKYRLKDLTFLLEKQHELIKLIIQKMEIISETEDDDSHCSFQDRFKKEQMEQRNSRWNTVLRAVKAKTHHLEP
T3 sequence (Q9EPK8 whole entry): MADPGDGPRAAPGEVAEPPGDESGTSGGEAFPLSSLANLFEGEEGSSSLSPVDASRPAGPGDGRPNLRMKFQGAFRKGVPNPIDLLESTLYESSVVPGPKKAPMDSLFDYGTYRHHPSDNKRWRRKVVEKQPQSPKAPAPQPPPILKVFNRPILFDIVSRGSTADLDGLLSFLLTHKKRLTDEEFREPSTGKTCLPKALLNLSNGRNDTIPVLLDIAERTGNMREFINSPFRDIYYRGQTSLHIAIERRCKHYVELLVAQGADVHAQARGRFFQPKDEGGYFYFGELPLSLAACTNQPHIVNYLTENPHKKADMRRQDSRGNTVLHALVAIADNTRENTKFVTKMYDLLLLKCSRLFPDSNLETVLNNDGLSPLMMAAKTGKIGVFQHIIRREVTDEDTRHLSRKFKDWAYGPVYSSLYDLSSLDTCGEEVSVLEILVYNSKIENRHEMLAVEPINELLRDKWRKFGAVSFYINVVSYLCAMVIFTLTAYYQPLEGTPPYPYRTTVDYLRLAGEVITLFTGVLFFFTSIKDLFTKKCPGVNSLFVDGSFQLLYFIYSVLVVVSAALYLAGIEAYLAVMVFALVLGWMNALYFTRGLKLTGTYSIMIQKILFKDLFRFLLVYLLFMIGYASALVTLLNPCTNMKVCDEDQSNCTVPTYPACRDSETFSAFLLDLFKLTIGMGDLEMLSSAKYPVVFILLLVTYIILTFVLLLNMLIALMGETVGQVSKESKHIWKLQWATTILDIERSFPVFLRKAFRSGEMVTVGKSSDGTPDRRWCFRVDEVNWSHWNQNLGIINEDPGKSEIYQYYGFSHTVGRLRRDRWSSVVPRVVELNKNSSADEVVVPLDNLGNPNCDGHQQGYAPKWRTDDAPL
T1 sequence (Q8R4D5 whole entry): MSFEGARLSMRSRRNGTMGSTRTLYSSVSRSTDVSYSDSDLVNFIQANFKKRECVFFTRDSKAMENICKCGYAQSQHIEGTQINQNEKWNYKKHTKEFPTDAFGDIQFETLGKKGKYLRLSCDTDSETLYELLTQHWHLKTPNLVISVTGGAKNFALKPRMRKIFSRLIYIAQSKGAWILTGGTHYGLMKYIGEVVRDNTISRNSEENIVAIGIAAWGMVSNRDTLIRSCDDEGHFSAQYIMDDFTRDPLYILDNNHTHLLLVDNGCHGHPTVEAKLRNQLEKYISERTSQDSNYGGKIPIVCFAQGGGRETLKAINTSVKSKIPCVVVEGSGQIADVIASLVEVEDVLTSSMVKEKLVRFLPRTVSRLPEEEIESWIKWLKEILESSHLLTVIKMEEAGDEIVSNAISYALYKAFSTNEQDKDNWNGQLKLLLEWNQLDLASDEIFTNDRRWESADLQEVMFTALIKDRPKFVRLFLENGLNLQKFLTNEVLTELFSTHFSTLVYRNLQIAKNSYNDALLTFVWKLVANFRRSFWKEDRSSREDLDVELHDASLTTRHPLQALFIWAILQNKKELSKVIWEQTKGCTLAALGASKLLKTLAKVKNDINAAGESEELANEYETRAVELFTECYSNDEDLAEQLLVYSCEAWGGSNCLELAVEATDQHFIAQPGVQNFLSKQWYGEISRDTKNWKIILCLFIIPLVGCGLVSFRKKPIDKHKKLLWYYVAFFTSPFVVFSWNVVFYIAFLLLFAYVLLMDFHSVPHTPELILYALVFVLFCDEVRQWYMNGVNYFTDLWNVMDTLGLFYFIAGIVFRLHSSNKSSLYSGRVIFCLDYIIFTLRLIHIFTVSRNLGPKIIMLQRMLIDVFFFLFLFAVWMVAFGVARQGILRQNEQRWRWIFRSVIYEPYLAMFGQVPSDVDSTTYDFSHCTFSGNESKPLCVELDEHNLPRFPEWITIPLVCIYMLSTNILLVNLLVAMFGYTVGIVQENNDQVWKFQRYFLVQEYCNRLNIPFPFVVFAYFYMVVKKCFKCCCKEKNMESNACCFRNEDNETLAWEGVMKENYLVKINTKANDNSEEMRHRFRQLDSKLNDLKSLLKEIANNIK
T2 sequence (O35433 whole entry): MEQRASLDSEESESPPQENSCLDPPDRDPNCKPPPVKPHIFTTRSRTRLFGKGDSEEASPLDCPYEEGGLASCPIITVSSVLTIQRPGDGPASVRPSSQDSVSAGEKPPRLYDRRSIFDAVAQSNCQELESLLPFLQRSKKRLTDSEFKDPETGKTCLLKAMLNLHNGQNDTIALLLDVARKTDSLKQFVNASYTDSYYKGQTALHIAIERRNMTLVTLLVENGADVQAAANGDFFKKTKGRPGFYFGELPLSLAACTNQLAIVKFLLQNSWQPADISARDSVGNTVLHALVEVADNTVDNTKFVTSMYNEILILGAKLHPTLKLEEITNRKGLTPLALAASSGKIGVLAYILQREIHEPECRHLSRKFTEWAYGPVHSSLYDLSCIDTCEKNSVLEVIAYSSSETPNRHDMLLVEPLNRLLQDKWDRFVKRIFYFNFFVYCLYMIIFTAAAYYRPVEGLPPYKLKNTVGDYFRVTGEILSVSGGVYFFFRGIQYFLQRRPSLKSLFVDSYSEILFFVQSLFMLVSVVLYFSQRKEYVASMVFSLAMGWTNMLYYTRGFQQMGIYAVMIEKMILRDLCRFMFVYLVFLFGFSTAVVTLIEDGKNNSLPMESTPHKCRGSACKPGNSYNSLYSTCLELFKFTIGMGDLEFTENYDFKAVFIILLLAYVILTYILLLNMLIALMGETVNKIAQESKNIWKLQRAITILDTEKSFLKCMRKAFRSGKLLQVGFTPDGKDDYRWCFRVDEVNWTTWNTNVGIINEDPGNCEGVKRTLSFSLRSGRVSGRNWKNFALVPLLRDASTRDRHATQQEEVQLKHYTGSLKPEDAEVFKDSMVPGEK

## CC=O [acetaldehyde]
[1]
  activation of TRPM8 by acetaldehyde: only TRPA1 was activated
[2]
  current increase in trigeminal neurons: increased current
[3]
  activation of TRPV1 by acetaldehyde: only TRPA1 was activated
[4]; 1 mM, 10 mM, 100 mM acetaldehyde intradermal
  dose dependence of acetaldehyde-induced nociceptive behaviors: increased in a dose-dependent manner
[4]; intradermal into hindpaw, 10 μl, 100 mM acetaldehyde or 10 mM cinnamaldehyde, n=5
  acute hindpaw licking/flicking behavior elicited: elicited acute licking or flicking behavior
[5]
  activation of TRPV4 by acetaldehyde: only TRPA1 was activated
[6]
  activation of TRPV3 by acetaldehyde: only TRPA1 was activated
[7]
  EC50: 76.5 µM
[7]; 1 mM acetaldehyde, 300 μM cinnamaldehyde, 10 mM acetic acid, 1% methanol, 1% ethanol
  elevation of intracellular calcium levels in hTRPA1-expressing cells: TRPA1-specific responses; also recorded: responded
[7]; acetaldehyde 1 to 10^4 μM, Fluo-3 calcium imaging
  n of dose-response curve (Hill plot) on hTRPA1: 2.4

Reference: patent US7960130B2, “Method for activation of transient receptor potential cation channel, subfamily A, member 1 using acetaldehyde” (Korea University Industry and Academy Cooperation Foundation, priority 2008, dated 2011)
